# Structures can show the parent of a compound that is named as a salt.
# Molecular target: T1, GPR119 receptor (UniProt Q8TDV5, S309L, species not given)
# T1 sequence (Q8TDV5 1-335 S309L): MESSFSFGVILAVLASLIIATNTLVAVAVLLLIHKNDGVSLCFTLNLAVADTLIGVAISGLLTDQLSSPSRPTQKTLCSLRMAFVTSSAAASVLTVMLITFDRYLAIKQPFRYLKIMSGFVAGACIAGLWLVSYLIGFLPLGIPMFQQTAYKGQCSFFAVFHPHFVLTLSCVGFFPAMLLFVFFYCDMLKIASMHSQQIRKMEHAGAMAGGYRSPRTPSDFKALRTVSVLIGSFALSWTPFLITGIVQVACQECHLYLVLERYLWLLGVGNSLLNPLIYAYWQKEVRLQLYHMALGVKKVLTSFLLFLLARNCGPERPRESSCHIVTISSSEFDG
# Test: GPR119 signaling, cyclic AMP (cAMP) homogenous time resolved fluorescence (HTRF) assay
# Format: cell-based
# Details: CHO cells with Gα15 and murine GPR119, or HEK293 Flp-In cells with human GPR119 S309L; table does not say which; read-out: Activity: inflection points, denoted as EC50 values (agonist activation of GPR119, cAMP)
# Source text: Measurement of GPR119 Signaling Using a Cyclic AMP (cAMP) Homogenous Time Resolved Fluorescence (HTRF) Assay
# Chinese hamster ovary (CHO) cell lines stably transfected with the permissive guanine nucleotide binding protein alpha 15 (Gα15) and […] GPR119 were maintained in DMEM media containing FBS, penicillin-streptomycin, puromycin, and G418 (geneticin). Alternatively, human embryonic kidney (HEK)293 Flp-In cells (Invitrogen, Carlsbad, Calif.) were stably transfected with a human SNP variant (S309L) of GPR119 and maintained in DMEM media containing FBS, penicillin-streptomycin, and hygromycin. Agonist activation of the GPR119 receptor was measured in receptor transfected cells described above, treated with compounds of this invention, using a commercial homogenous time resolved fluorescence (HTRF) kit for measurement of cAMP (CisBio, Bedford, Mass.). The assay was performed in 96-well half-volume plates (murine) or 384-well plates (human) following the manufacturers instructions. Briefly, suspended cells were incubated with a dose titration of test compound at room temperature for 60 min, lysed, and incubated with HTRF reagents for an additional 60 min. The plate was read using an Envision multilabel reader (Perkin Elmer) adjusted to read time resolved fluorescence and the cAMP concentrations were extrapolated from a cAMP calibration curve. […] The concentration of test compound required to stimulate a half-maximal response (EC50), and efficacy as compared to an internal agonist control, was determined from a sigmoidal 4-parameter curve fit of the resulting plot of normalized activity versus compound concentration.
row,SMILES,EC50 [nM]
1,"Clc1cnc(N2CCC([C@@H]3C[C@@H]3CCOc3cccnc3)CC2)nc1 (racemic) [Ex 48, Rac-cis-5-chloro-2-(4-{2-[2-(pyridin-3-yloxy)ethyl]cyclopropyl}piperidin-1-yl)pyrimidine]",> 200
2,"Cc1nc(C#N)cc(OCC[C@@H]2C[C@@H]2C2CCN(c3ncc(Cl)cn3)CC2)n1 (racemic) [Ex 51, Rac-cis-6-(2-{2-[1-(5-chloropyrimidin-2-yl)piperidin-4-yl]cyclopropyl}ethoxy)-2-methylpyrimidine-4-carbonitrile]",< 10
3,"Clc1cnc(N2CCC(C3CC3CCOc3ccncn3)CC2)nc1 (racemic) [Ex 49, Rac-cis-5-chloro-2-(4-{2-[2-(pyrimidin-4-yloxy)ethyl]cyclopropyl}piperidin-l-yl)pyrimidine]",50 to 200
4,"Cc1nc(C#N)cc(OCC[C@@H]2C[C@@H]2C2CCN(c3ncc(Cl)c(C)n3)CC2)n1 (racemic) [Ex 42, Rac-cis-6-(2-{2-[1-(5-chloro-4-methylpyrimidin-2-yl)piperidin-4-yl]cyclopropyl}ethoxy)-2-methylpyrimidine-4-carbonitrile]",< 10
5,"Cc1nnc(-c2ccc(OCC[C@H]3C[C@H]3C3CCN(c4ccc(C(F)(F)F)cn4)CC3)cc2F)o1 (racemic) [Ex 89, Rac-cis-2-[4-(2-{2-[3-fluoro-4-(5-methyl-1,3,4-oxadiazol-2-yl)phenoxy]ethyl}cyclopropyl)piperidin-1-yl]-5-(trifluoromethyl)pyridinium trifluoroacetate]",< 10
6,"Cc1cc(OCC[C@@H]2C[C@H]2C2CCN(c3ncc(Cl)cn3)CC2)nc(C#N)n1 (racemic) [Ex 99, rac-trans-4-{2-{2-[1-(5-chloropyrimidin-2-yl)piperidin-4-yl]cyclopropyl}ethoxy)-6-methylpyrimidine-2-carbonitrile]",10 to 50
7,"Cc1nnc(-c2cccc(OCCC3CC3C3CCN(c4ncc(Cl)cn4)CC3)c2)o1 (racemic) [Ex 8, rac cis-5-chloro-2-[4-(2-{2-[3-(5-methyl-1,3,4-oxadiazol-2-yl)phenoxy]ethyl}cyclopropyl)piperidin-1-yl]pyrimidine]",> 200
8,"CS(=O)(=O)c1ccc(OC[C@H]2C[C@@H]2CC2CCN(c3ncc(Cl)cn3)CC2)cc1 [Ex 103, 5-chloro-2-{4-[((1S,2S)-2-{[4-(methylsulfonyl)phenoxy]methyl}cyclopropyl)methyl]piperidin-1-yl}pyrimidine]",10 to 50
9,"O=C(NC1CC1)c1ccc(OC[C@H]2C[C@@H]2CC2CCN(c3ncc(Cl)cn3)CC2)cc1F [Ex 108, 4-[((1S,2S)-2-{[1-(5-chloropyrimidin-2-yl)piperidin-4-yl]methyl}cyclopropyl)methoxy]-N-cyclopropyl-2-fluorobenzamide]",10 to 50
10,"Clc1cnc(N2CCC(C3CC3CCOc3ccc(-n4ccnn4)cn3)CC2)nc1 (single isomer, unassigned) [Ex 55a, Chiral cis-5-chloro-2-{4-[2-(2-{[5-(1H-1,2,3-triazol-1-yl)pyridin-2-yl]oxy}ethyl)cyclopropyl]piperidin-1-yl}pyrimidine]",< 10
11,"Cc1nnc(-c2ccc(OCCC3CC3C3CCN(c4ncc(Cl)cn4)CC3)cc2F)o1 (single isomer, unassigned) [Ex 83 S, cis-5-chloro-2-[4-(2-{2-[3-fluoro-4-(5-methyl-1,3,4-oxadiazol-2-yl)phenoxy]ethyl}cyclopropyl)piperidin-1-yl]pyrimidine]",< 10
12,"Cc1cnc(N2CCC([C@H]3C[C@H]3CCOc3cc(C)nc(C)n3)CC2)nc1 (racemic) [Ex 41, Rac-cis-2,4-dimethyl-6-(2-{2-[1-(5-methylpyrimidin-2-yl)piperidin-4-yl]cyclopropyl}ethoxy)pyrimidine]",10 to 50
13,"Clc1cnc(N2CCC(C3CC3CCOc3ccc(-c4cocn4)cc3)CC2)nc1 (racemic) [Ex 19, rac cis-5-chloro-2-[4-(2-{2-[4-(1,3-oxazol-4-yl)phenoxy]ethyl}cyclopropyl)piperidin-1-yl]pyrimidine]",10 to 50
14,"CS(=O)(=O)c1ccc(OCCC2CC2C2CCN(c3ncc(Cl)cn3)CC2)cc1 (racemic) [Ex 6, rac cis-5-chloro-2-[4-(2-{2-[4-(methylsulfonyl)phenoxy]ethyl}cyclopropyl)piperidin-1-yl]pyrimidine]",< 10
15,"O=C(NC1CC1)c1ccc(OCCC2CC2C2CCN(c3ncc(Cl)cn3)CC2)cc1F (racemic) [Ex 11, rac cis-4-(2-{2-[1-(5-chloropyrimidin-2-yl)piperidin-4-yl]cyclopropyl}ethoxy)-N-cyclopropyl-2-fluorobenzamide]",< 10
16,"N#Cc1cc(OCC[C@@H]2C[C@@H]2C2CCN(c3ncc(Cl)cn3)CC2)ncn1 (racemic) [Ex 37, Rac-cis-6-(2-{2-[1-(5-chloropyrimidin-2-yl)piperidin-4-yl]cyclopropyl}ethoxy)pyrimidine-4-carbonitrile]",< 10
17,"Cc1nnc(-c2ccc(OCC[C@H]3C[C@H]3C3CCN(c4ncc(Cl)c(C)n4)CC3)cc2F)o1 (racemic) [Ex 87, Rac-cis-5-chloro-2-[4-(2-{2-[3-fluoro-4-(5-methyl-1,3,4-oxadiazol-2-yl)phenoxy]ethyl}cyclopropyl)piperidin-1-yl]-4-methylpyrimidine]",< 10
18,"Clc1cnc(N2CCC(C3CC3CCOc3ccc(-n4cncn4)cc3)CC2)nc1 (racemic) [Ex 25, rac cis-5-chloro-2-[4-(2-{2-[4-(1H-1,2,4-triazol-1-yl)phenoxy]ethyl}cyclopropyl)piperidin-1-yl]pyrimidine]",10 to 50
19,"Cc1cnc(N2CCC([C@H]3C[C@H]3CCOc3cc(C#N)nc(C)n3)CC2)nc1 (racemic) [Ex 40, Rac-cis-2-methyl-6-(2-{2-[1-(5-methylpyrimidin-2-yl)piperidin-4-yl]cyclopropyl}ethoxy)pyrimidine-4-carbonitrile]",< 10
20,"Fc1cc(OCCC2CC2C2CCN(c3ncc(Cl)cn3)CC2)ccc1-n1cnnn1 (single isomer, unassigned) [Ex 83dS, cis-5-chloro-2-[4-(2-{2-[3-fluoro-4-(1H-tetrazol-1-yl)phenoxy]ethyl}cyclopropyl)piperidin-1-yl]pyrimidine]",< 10
21,"Clc1cnc(N2CCC(C3CC3CCOc3ccc(-n4cnnc4)cc3)CC2)nc1 (racemic) [Ex 26, rac cis-5-chloro-2-[4-(2-{2-[4-(4H-1,2,4-triazol-4-yl)phenoxy]ethyl}cyclopropyl)piperidin-1-yl]pyrimidine]",10 to 50
22,"Cc1nnc(-c2ccc(OCC[C@H]3C[C@@H]3C3CCN(c4ncc(Cl)cn4)CC3)cc2F)o1 [Ex 96, 5-chloro-2-[4-((1R,2R)-2-{2-[3-fluoro-4-(5-methyl-1,3,4-oxadiazol-2-yl)phenoxy]ethyl}cyclopropyl)piperidin-1-yl)pyrimidine]",10 to 50
23,"Cc1nnc(-c2ccc(OCC[C@H]3C[C@H]3C3CCN(c4ncccn4)CC3)cc2F)o1 (racemic) [Ex 85, Rac-cis-2-[4-(2-{2-[3-fluoro-4-(5-methyl-1,3,4-oxadiazol-2-yl)phenoxy]ethyl}cyclopropyl)piperidin-1-yl]pyrimidine]",< 10
24,"Clc1cnc(N2CCC(C3CC3CCOc3ccncc3)CC2)nc1 (racemic) [Ex 92, rac-trans-5-chloro-2-(4-{2-[2-(pyridin-4-yloxy)ethyl]cyclopropyl}piperidin-1-yl)pyrimidine]",50 to 200
25,"N#Cc1ccc(OCC[C@H]2C[C@@H]2C2CCN(c3ncc(Cl)cn3)CC2)cc1F [Ex 94, 4-(2-{(1R,2R)-2-[1-(5-chloropyrimidin-2-yl)piperidin-4-yl]cyclopropyl}ethoxy)-2-fluorobenzonitrile]",50 to 200
26,"CS(=O)(=O)c1ccc(OCC[C@@H]2C[C@H]2C2CCN(c3ncc(Cl)cn3)CC2)cc1 (racemic) [Ex 90, rac-trans-5-chloro-2-[4-(2-{2-[4-(methylsulfonyl)phenoxy]ethyl}cyclopropyl)piperidin-1-yl]pyrimidine]",10 to 50
27,Fc1cnc(N2CCC(C3CC3CCOc3ccc(-n4cnnn4)c(F)c3)CC2)nc1 (racemic) [Ex 30d],< 10
28,"Clc1cnc(N2CCC(C3CC3CCOc3ccc(-c4ccn[nH]4)cc3)CC2)nc1 (racemic) [Ex 22, rac cis-5-chloro-2-[4-(2-{2-[4-(1H-pyrazol-3-yl)phenoxy]ethy]}cyclopropyl)piperidin-1-yl]pyrimidine]",10 to 50
29,"Cc1nnc(-c2ccc(OCCC3CC3C3CCN(c4ncc(Cl)cn4)CC3)cc2F)o1 (single isomer, unassigned) [Ex 83 F, cis-5-chloro-2-[4-(2-{2-[3-fluoro-4-(5-methyl-1,3,4-oxadiazol-2-yl)phenoxy]ethyl}cyclopropyl)piperidin-1-yl]pyrimidine]",< 10

# Source: US8343990B2, “Substituted cyclopropyl compounds, compositions containing such compounds and methods of treatment” (Merck Sharp & Dohme Corp., priority 2008, dated 2013)
